Values after ≈ are worked out from the molar mass of the structure shown. Active and inactive are the calls of the source. A value given as a limit tells only on which side of the number the result lay.

Six molecules from ChEMBL document CHEMBL3217667, “Extended side chain analogues of 8-aminoquinolines: Synthesis and evaluation of antiprotozoal, antimicrobial, -hematin inhibition, and cytotoxic activities” (Medchemcomm, 2011) can be followed below.

Series [1] has as its system Leishmania donovani. Nature of the series: Antileishmanial activity against Leishmania donovani promastigotes by Alamar Blue assay. It is filed as functional, organism-based. A general note: The colour change of resazurin is a common sign of viable cells or microbes.
The nature of series [2]: Inhibition of beta-hematin formation after 16 hrs. It is filed as physicochemical.
Series [3] relates to SK-MEL. Nature of the series: Cytotoxicity against human SK-MEL cells by neutral red uptake assay. It counts as cell-based.
Series [4] deals with Pichia kudriavzevii. Kind of series: Antifungal activity against Candida krusei by broth microdilution assay. It is filed as functional, organism-based. A general note: In broth dilution the organism is exposed to a series of concentrations in liquid medium.
In series [5] the test system is Escherichia coli. Nature of the series: Antibacterial activity against Escherichia coli. It is filed as functional, organism-based.
Series [6] has as its system Plasmodium falciparum. Kind of series: Antimalarial activity against chloroquine-sensitive Plasmodium falciparum D6 by lactate dehydrogenase assay. It is filed as functional, organism-based. Particulars: Plasmodium falciparum, D6; read-out: IC50.
A short description of series [7]: Selectivity index, ratio of IC50 for African green monkey Vero cells to IC50 for chloroquine-sensitive Plasmodium falciparum D6. It counts as toxicity, cell-based. Particulars: read-out: Ratio IC50.
Series [8] deals with Pseudomonas aeruginosa. Kind of series: Antibacterial activity against Pseudomonas aeruginosa. It counts as functional, organism-based.
For series [9], the system named is Mycobacterium intracellulare. Nature of the series: Antibacterial activity against Mycobacterium intracellulare up to 20 ug/ml. It is filed as functional, organism-based.
The subject of series [10] is LLC-PK1. Kind of series: Cytotoxicity against pig LLC-PK1 cells by neutral red uptake assay. Particulars: Sus scrofa. It is filed as cell-based.
Series [11] has as its system Aspergillus fumigatus. Nature of the series: Antifungal activity against Aspergillus fumigatus by broth microdilution assay. It counts as functional, organism-based.
Series [12] deals with Staphylococcus aureus. Nature of the series: Antibacterial activity against Staphylococcus aureus. It counts as functional, organism-based.
Series [13] has as its system Mycobacterium intracellulare. Kind of series: Antibacterial activity against Mycobacterium intracellulare. It is filed as functional, organism-based.
In series [14] the test system is BT-549. Nature of the series: Cytotoxicity against human BT549 cells by neutral red uptake assay. It counts as cell-based.
Series [15] relates to Cryptococcus neoformans. Nature of the series: Antifungal activity against Cryptococcus neoformans by broth microdilution assay. It is filed as functional, organism-based.
For series [16], the system named is KB. Nature of the series: Cytotoxicity against human KB cells by neutral red uptake assay. It counts as cell-based.
For series [17], the system named is Plasmodium falciparum. Nature of the series: Antimalarial activity against chloroquine-resistant Plasmodium falciparum W2 by lactate dehydrogenase assay. As to conditions: Plasmodium falciparum, W2; read-out: IC50. It is filed as functional, organism-based.
A short description of series [18]: Selectivity index, ratio of IC50 for African green monkey Vero cells to IC50 for chloroquine-resistant Plasmodium falciparum W2. It is filed as toxicity, cell-based. As to conditions: read-out: Ratio IC50.
Series [19] concerns Staphylococcus aureus. Kind of series: Antibacterial activity against methicillin-resistant Staphylococcus aureus. It counts as functional, organism-based.
Series [20] deals with Candida albicans. Kind of series: Antifungal activity against Candida albicans by broth microdilution assay. It is filed as functional, organism-based.
In series [21] the test system is Nakaseomyces glabratus. Kind of series: Antifungal activity against Candida glabrata by broth microdilution assay. It is filed as functional, organism-based.
Series [22] deals with Plasmodium berghei. Kind of series: Antimalarial activity against Plasmodium berghei infected in mouse assessed as reduction in parasitemia at 100 mg/kg/day, po for 4 days measured up to day 14. It is filed as functional.
Series [23] deals with SK-OV-3. Nature of the series: Cytotoxicity against human SKOV3 cells by neutral red uptake assay. It is filed as cell-based.
The test system of series [24] is Vero. Kind of series: Cytotoxicity against African green monkey Vero cells by neutral red uptake assay. It is filed as cell-based. As to conditions: Chlorocebus sabaeus.

In the case of `N=C(N)c1ccc(OCCCCCOc2ccc(C(=N)N)cc2)cc1` [PENTAMIDINE], the IC90 – broadly, the concentration needed for an effect of 90% – in series [1] came out at 3.8 µg/mL (≈ 11.2 µM).
For `CCN(CC)CCCC(C)Nc1ccnc2cc(Cl)ccc12` (stereo unspecified) [CHLOROQUINE], in series [2], 80 µM corresponded to half-maximal inhibition (IC50).
For the molecule `CCCCCOc1c(OC)cc(NC(C)CCCNC(C)CCCN)c2nccc(CC)c12.Cl` (stereo unspecified), the IC50 (in general, the point on the concentration scale where inhibition reaches its midpoint) in series [3] is over 23.8 µg/mL; in series [6], 0.52 µg/mL; in series [1] it was 3.7 µg/mL; in series [10] it was over 23.8 µg/mL; in series [12], 13.6 µg/mL; in series [13], over 20 µg/mL. Besides, the IC50 in [14] is over 23.8 µg/mL; in [15], 5.8 µg/mL; in [16], over 23.8 µg/mL; in series [17] it was 0.18 µg/mL; in [19], 13.4 µg/mL; in series [2], 9.6 µM. Moreover, the concentration for half-maximal inhibition (IC50) in series [23] and in [24] was over 23.8 µg/mL throughout. Besides, the outcome in series [4], in [5], in [8], in [9], in series [11] and in [20] was inactive. Besides, the outcome in series [21] and in series [22] was inactive. In addition, the results for the selectivity ratio in [7] and in series [18] were over 45.7 and over 132, respectively. In series [1], this molecule had an IC90 of 7 µg/mL. Further, the MBC in [12] and in [19] was 20 µg/mL throughout. For the same molecule, the MIC – broadly, the lowest concentration that inhibits growth of the organism – in series [12] stood at 20 µg/mL; in series [15], 10 µg/mL; in series [19], 20 µg/mL. For the same molecule, the minimum fungicidal concentration (MFC) (commonly the smallest concentration meeting the test's criterion for killing the fungus) in series [15] was found to be 10 µg/mL.
As to `CCCCCOc1c(OC)cc(NC(C)CCCNC(C)CCCNC(C)CCCNC(C)CCCN)c2nccc(CC)c12.Cl` (stereo unspecified), the concentration for half-maximal inhibition (IC50) was over 23.8 µg/mL in [3]; 0.44 µg/mL in series [6]; 3.1 µg/mL in series [1]; over 23.8 µg/mL in series [10]; 9.8 µg/mL in series [12]; 17.8 µg/mL in series [13]. The IC50 is over 23.8 µg/mL in series [14]; 5.6 µg/mL in series [15]; over 23.8 µg/mL in series [16]; 0.42 µg/mL in series [17]; 11 µg/mL in series [19]; 11.2 µM in series [2]. Further, the 50% inhibitory concentration (IC50) in series [23] and in series [24] was over 23.8 µg/mL each time. Besides, the outcome in series [4], in series [5], in series [8], in series [9], in series [11] and in series [20] was inactive. In addition, the result in series [21] and in series [22] was inactive. Also, the selectivity ratio in series [7] was over 54; in [18], over 56.6. Also, the IC90 in series [1] came out at 7 µg/mL. Besides, the minimum bactericidal concentration (MBC) in series [12] and in series [19] was 20 µg/mL throughout. Besides, the minimum inhibitory concentration (MIC) in series [12] is 20 µg/mL; in [13], 20 µg/mL; in series [15] it was 10 µg/mL; in [19], 20 µg/mL. In series [15], the MFC came to 10 µg/mL.
In the case of `C[C@@H]1CC[C@H]2[C@@H](C)C(=O)O[C@@H]3O[C@@]4(C)CC[C@@H]1[C@]32OO4` [ARTEMISININ], the values for the selectivity ratio in series [7] and in series [18] were 1560 and 2640, respectively.
`C[C@@H]1[C@H](O)[C@@H](C)/C=C/C=C/C=C/C=C/C=C/C=C/C=C/[C@H](O[C@@H]2O[C@H](C)[C@@H](O)[C@H](N)[C@@H]2O)C[C@@H]2O[C@](O)(C[C@@H](O)C[C@@H](O)[C@H](O)CC[C@@H](O)C[C@@H](O)CC(=O)O[C@H]1C)C[C@H](O)[C@H]2C(=O)O` [AMPHOTERICIN B] showed an IC90 in series [1] of 0.35 µg/mL (≈ 0.379 µM). This molecule registered an MFC in [15] of 1.5 µg/mL (≈ 1.62 µM). In addition, in series [21], the minimal fungicidal concentration (MFC) came to 0.625 µg/mL (≈ 0.676 µM) and it took 0.31 µg/mL (≈ 0.335 µM) to inhibit growth (MIC).
